Consider 9 compounds from paper PMC8846360, “Structural Optimization and Improving Antitumor Potential of Moreollic Acid from Gamboge” (Molecules, 2022).

A word on the inhibition: it is the relative decrease from the control value, in per cent. A word on the IC50: it is the concentration that gives 50% inhibition.

Assay type in all cases: cell-based
Experiment [1] has as its system human esophageal cancer cells (KYSE30). Put plainly: CCK-8 cell proliferation assay, KYSE30. The settings on record: KYSE-30, 48 h, read-out: Inhibition rates (%) KYSE30. The procedure: (§1) Initially, the target compounds were evaluated for antiproliferative activities against human non-small-cell lung cancer cells (A549), human breast cancer cells (MDA-MB-231), human esophageal cancer cells (KYSE30), and human colon cancer cells (HCT-116) at 5 μM. All of them were tested by the CCK-8 assay using 5-Fu as the positive control.
(§2) To investigate the effects of compounds on tumor cells’ proliferation, the cell proliferation assay was performed using the Cell Counting Kit-8 (#40203ES60, Yeasen, Shanghai, China). In brief, cells were seeded in a 96-well plate at 3 × 10^3 cells per well and cultured overnight. Then, the medium was replaced with fresh DMEM medium containing various concentrations of compounds or vehicle. After 48 h of incubation, the medium was exchanged with 100 μL of FBS-free DMEM medium supplemented with 10 μL of CCK8 added to each well and incubated at 37 °C for another 2 h. Absorbance at 450 nm was measured with a microplate reader (Thermo). The experiments were performed in triplicate. The mean ± SD values presented in the figures were calculated from three independent experiments. Comparisons between groups were evaluated using GraphPad Prism version 7.0 software. p < 0.05 was considered statistically significant.
In general terms: Tetrazolium assays rely on reduction of a dye to a coloured formazan, in cell work by metabolically active cells.

Experiment [2] concerns normal human colonic epithelial cells (NCM460). The experiment is described as follows: CCK-8 cell proliferation assay, NCM460. The settings on record: read-out: IC50 ± SD NCM460. The procedure: (§3) To further assess the antitumor activities of synthesized compounds against human colon cancer cells, the effects of each synthesized compound on the viability of two additional human colon cancer cells (SW620, DLD1) were evaluated, and normal human colonic epithelial cells (NCM460) were used as a control. It is obvious that all the synthesized compounds display potential antitumor activities against HCT116, DLD1, and SW620 cells. […] In addition, for SW620, the activities of most optimized compounds were slightly stronger than that of 5-Fu.
as §2

In experiment [3] the test system is human colon cancer cells (HCT-116). The experiment is described as follows: CCK-8 cell proliferation assay, HCT-116. As to conditions: for inhibition at 5 µM: read-out: Inhibition rates (%) HCT-116; for IC50: read-out: IC50 ± SD HCT116. The procedure: as §1, §3
(§4) HCT116, SW620, and DLD1 were purchased from American Type Culture Collection (ATCC). SW620 and DLD1 were cultured in Dulbecco’s Modified Eagles medium (Thermo), and HCT116 was cultured in McCoy’s 5A medium (Thermo). All media were supplemented with 10% fetal bovine serum (Thermo) and 1% penicillin/streptomycin. All the cells were passaged at approximately 80% confluency. Cells were tested for mycoplasma every two months, and only mycoplasma-negative cells were used
as §2

Experiment [4] concerns human non-small-cell lung cancer cells (A549). The experiment is described as follows: CCK-8 cell proliferation assay, A549. The settings on record: 48 h, read-out: Inhibition rates (%) A549. The procedure:
as §1, §2

For experiment [5], the system named is human colon cancer cells (DLD1). Put plainly: CCK-8 cell proliferation assay, DLD1. As to conditions: read-out: IC50 ± SD DLD1. The procedure: as §3, §4, §2
Experiment [6] has as its system human breast cancer cells (MDA-MB-231). Put plainly: CCK-8 cell proliferation assay, MDA-MB-231. As to conditions: 48 h, read-out: Inhibition rates (%) MDA-MB-231. The procedure:
as §1, §2

In experiment [7] the test system is human colon cancer cells (SW620). Put plainly: CCK-8 cell proliferation assay, SW620. The settings on record: read-out: IC50 ± SD SW620. The procedure: as §3, §4, §2
The mark [8] stands for this setting: NCM460, CCK-8, 48 h, normal colonic epithelial cells.

Each structure is given as a SMILES string. Like-named read-outs stand apart in the source and are kept apart here.

Consider `O=c1[nH]cc(F)c(=O)[nH]1` [5-Fu, 5-fluorouracil, reference compound], for which the inhibition at 5 µM in experiment [1] turned out to be 28 ± 2.27%; in experiment [3] (HCT-116, 5 μM, CCK-8, 48 h), 74.5 ± 1.1%; in experiment [4], 21.1 ± 1.79%; in experiment [6], 26.6 ± 2.51%. The IC50 came out at 13600 ± 590 nM in experiment [2] (setting [8]); 620 ± 20 nM in experiment [3] (HCT-116, CCK-8, 48 h); 7890 ± 750 nM in experiment [5] (DLD-1, CCK-8, 48 h); 2680 ± 10 nM in experiment [7] (SW-620, CCK-8, 48 h).

Turning to `COC1C2CC3C(C)(C)OC(CC=C(C)C(=O)O)(C2=O)C32Oc3c(CC=C(C)C)c4c(c(O)c3C(=O)C12)C=CC(C)(C)O4` (stereo not drawn) [TH12-1, Moreollic acid], the inhibition at 5 µM in experiment [1] is 20.76 ± 0.04%; in experiment [3] (HCT-116, 48 h), 83.9 ± 1.1%; in experiment [4], 18.38 ± 0.02%; in experiment [6], -4.9 ± 0.04%. In addition, the IC50 in experiment [2] (NCM460, 48 h) stood at 3160 ± 320 nM; in experiment [3] (HCT-116, 48 h) it was 1710 ± 330 nM; in experiment [5] (DLD-1, 48 h), 1440 ± 290 nM; in experiment [7] (SW-620, 48 h), 1490 ± 370 nM.

On to `COC1C2CC3C(C)(C)OC(CC=C(C)C(=O)N4CCCCC4)(C2=O)C32Oc3c(CC=C(C)C)c4c(c(O)c3C(=O)C12)C=CC(C)(C)O4` (stereo not drawn) [TH12-2], for which the inhibition at 5 µM in experiment [1] was determined as 9.08 ± 2.44%; in experiment [3] (HCT-116, 5 μM, CCK-8, 48 h), 86.1 ± 2.83%; in experiment [4], 2.51 ± 4.32%; in experiment [6], 0.14 ± 3.51%. Further, the IC50 worked out at 4730 ± 40 nM in experiment [2] (setting [8]); 1190 ± 250 nM in experiment [3] (HCT-116, CCK-8, 48 h); 1390 ± 190 nM in experiment [5] (DLD-1, CCK-8, 48 h); 1150 ± 130 nM in experiment [7] (SW-620, CCK-8, 48 h).

In the case of `COC1C2CC3C(C)(C)OC(CC=C(C)C(=O)N4CCOCC4)(C2=O)C32Oc3c(CC=C(C)C)c4c(c(O)c3C(=O)C12)C=CC(C)(C)O4` (stereo not drawn) [TH12-3], the inhibition at 5 µM in experiment [1] came out at 10.6 ± 2.66%; in experiment [3] (HCT-116, 5 μM, CCK-8, 48 h), 87.4 ± 2.49%; in experiment [4] it was 11.6 ± 4.25%; in experiment [6], 1.71 ± 1.66%. Besides, the IC50 in experiment [2] (setting [8]) is 4720 ± 30 nM; in experiment [3] (HCT-116, CCK-8, 48 h), 1960 ± 200 nM; in experiment [5] (DLD-1, CCK-8, 48 h), 2310 ± 230 nM; in experiment [7] (SW-620, CCK-8, 48 h), 1820 ± 330 nM.

For the compound `COC1C2CC3C(C)(C)OC(CC=C(C)C(=O)N4CCSCC4)(C2=O)C32Oc3c(CC=C(C)C)c4c(c(O)c3C(=O)C12)C=CC(C)(C)O4` (stereo not drawn) [TH12-4], the inhibition at 5 µM was determined as 6.98 ± 1.99% in experiment [1]; 16.3 ± 4.56% in experiment [3] (HCT-116, 5 μM, CCK-8, 48 h); 11.1 ± 5.41% in experiment [4]; 3.13 ± 1.16% in experiment [6]. The IC50 stood at 19900 ± 840 nM in experiment [2] (setting [8]); 7620 ± 930 nM in experiment [3] (HCT-116, CCK-8, 48 h); 7890 ± 120 nM in experiment [5] (DLD-1, CCK-8, 48 h); 7260 ± 870 nM in experiment [7] (SW-620, CCK-8, 48 h).

For `COC1C2CC3C(C)(C)OC(CC=C(C)C(=O)N4CCC(C)CC4)(C2=O)C32Oc3c(CC=C(C)C)c4c(c(O)c3C(=O)C12)C=CC(C)(C)O4` (stereo not drawn) [TH12-5], the inhibition at 5 µM in experiment [1] was 5.65 ± 3.77%; in experiment [3] (HCT-116, 48 h), 85.5 ± 1.45%; in experiment [4], 14.3 ± 2.84%; in experiment [6], 0.69 ± 1.92%. For the same compound, the half-maximal inhibitory concentration (IC50) came to 5110 ± 210 nM in experiment [2] (NCM460, 48 h); 2370 ± 630 nM in experiment [3] (HCT-116, 48 h); 2490 ± 560 nM in experiment [5] (DLD-1, 48 h); 1970 ± 340 nM in experiment [7] (SW-620, 48 h).

For the compound `COC1C2CC3C(C)(C)OC(CC=C(C)C(=O)N4CCC(c5ccccc5)CC4)(C2=O)C32Oc3c(CC=C(C)C)c4c(c(O)c3C(=O)C12)C=CC(C)(C)O4` (stereo not drawn) [TH12-7], the inhibition at 5 µM in experiment [1] is -2.71 ± 0.83%; in experiment [3] (HCT-116, 5 μM, CCK-8, 48 h) it was 87.1 ± 2.37%; in experiment [4], 4.59 ± 1.27%; in experiment [6] it was 2.99 ± 0.16%. Moreover, the IC50 worked out at 2970 ± 80 nM in experiment [2] (setting [8]); 1520 ± 140 nM in experiment [3] (HCT-116, CCK-8, 48 h); 1450 ± 250 nM in experiment [5] (DLD-1, CCK-8, 48 h); 1310 ± 240 nM in experiment [7] (SW-620, CCK-8, 48 h).

As to `COC1C2CC3C(C)(C)OC(CC=C(C)C(=O)N4CCC(N5CCCC5)CC4)(C2=O)C32Oc3c(CC=C(C)C)c4c(c(O)c3C(=O)C12)C=CC(C)(C)O4` (stereo not drawn) [TH12-8], the inhibition at 5 µM in experiment [1] stood at 4.04 ± 1.5%; in experiment [3] (HCT-116, 5 μM, CCK-8, 48 h), 87.6 ± 2.76%; in experiment [4], 4.8 ± 0.63%; in experiment [6] it was 4.32 ± 1.96%. In addition, the 50% inhibitory concentration (IC50) in experiment [2] (setting [8]) stood at 2290 ± 10 nM; in experiment [3] (HCT-116, CCK-8, 48 h), 1000 ± 130 nM; in experiment [5] (DLD-1, CCK-8, 48 h) it was 1050 ± 230 nM; in experiment [7] (SW-620, CCK-8, 48 h), 970 ± 100 nM.

As to `CONC(=O)C(C)=CCC12OC(C)(C)C3CC(C1=O)C(OC)C1C(=O)c4c(O)c5c(c(CC=C(C)C)c4OC132)OC(C)(C)C=C5` (stereo not drawn) [TH12-9], the inhibition at 5 µM in experiment [1] was 4.49 ± 1.05%; in experiment [3] (HCT-116, 5 μM, CCK-8, 48 h), 83.9 ± 2.07%; in experiment [4], 8.54 ± 1.11%; in experiment [6], -1.76 ± 0.43%. Also, the IC50 in experiment [2] (setting [8]) turned out to be 1630 ± 20 nM; in experiment [3] (HCT-116, CCK-8, 48 h), 1680 ± 260 nM; in experiment [5] (DLD-1, CCK-8, 48 h), 1670 ± 700 nM; in experiment [7] (SW-620, CCK-8, 48 h), 1590 ± 440 nM.
